Results on 35 compounds are retold here after patent US5140040A, “1-aminomethyl-1,2,3,4-tetrahydronaphthalenes” (Abbott Laboratories, priority 1991, dated 1992).

The experiment addresses alpha-2-receptor. Description: Radioligand binding, alpha-2 adrenoceptor, rat cerebral cortices, [^3 H]-rauwolscine. The conditions noted are these: for pKi: rat cerebral cortices, [^3 H]-rauwolscine; for alpha-2 - Selectivity Ki alpha-1/Ki alpha 2: ratio of Ki alpha-1 to Ki alpha-2. As for the experimental part:
The compounds were assessed for alpha-adrenergic receptor subtype selectivity by use of radioligand binding techniques as described previously (DeBernardis et.al. J. Med. Chem. 28, 1398 (1985)).

pKi: −log10 of the molar value. Structures can show the parent of a compound that is named as a salt.

Broadly, the pKi is −log10 of the Ki, conventionally taken in molar units. A lower pKi goes with a high Ki. On to `COc1ccc2c(c1)CCCC2CN(C)CCc1ccsc1` (stereo not shown) [Example 6d, 1--((N-methylamino)methyl N-(2-(3-thienyl)ethyl))-6-methoxy tetralin hydrochloride], for which the pKi was 8.82 and the “alpha-2 - Selectivity Ki alpha-1/Ki alpha 2” value is 333.

For `COc1ccc2c(c1)CCCC2CN(C)CCC1CCCC1` (stereo not shown) [Example 6f, 1-((N-methylamino)methyl N-(2-(cyclopentyl)ethyl)) 6-methoxy tetralin hydrochloride], the negative-log Ki (pKi) is 8.19 and the “alpha-2 - Selectivity Ki alpha-1/Ki alpha 2” value turned out to be 332.

On to `COc1ccc2c(c1)CCCC2CN(C)CCC1CCCS1` (stereo not shown) [Example 6h, 1-((N-methylamino)methyl-N-(2-(2-tetrahydrothienyl)ethyl))-6-methoxy tetralin hydrochloride], for which the pKi is 8.46 and the “alpha-2 - Selectivity Ki alpha-1/Ki alpha 2” value was 430.

For `CN(CCc1cccs1)CC1CCCc2cc(O)ccc21` (stereo not shown) [Example 7, 1-((N-Methylamino)methyl-N(2-(2-thienyl)ethyl))-6-hydroxy tetralin hydrochloride], the pKi was 8.80 and the “alpha-2 - Selectivity Ki alpha-1/Ki alpha 2” value is on record as 353.

As for `COc1ccc2c(c1)CCCC2CN(C)CCc1cccn1C` (stereo not shown) [Example 12, 1-((N-Methylamino)methyl-N-(2-(N-methyl2-pyrrolyl)-ethyl))-6-methoxy tetralin fumarate], the pKi is 8.30 and the “alpha-2 - Selectivity Ki alpha-1/Ki alpha 2” value is 242.

Consider `CN(CCc1cccs1)CC1CCCc2ccccc21` (stereo not shown) [Example 22, 1-((N-Methylamino)methyl-N-(2-(2-thienyl)ethyl)) tetralin hydrochloride], for which the pKi is 8.89 and the “alpha-2 - Selectivity Ki alpha-1/Ki alpha 2” value was 535.

On to `CN(CCc1cccs1)CC1CCCc2c1ccc1c2OCO1` (stereo not shown) [Example 23, 1-((N-Methylamino)methyl-N-(2-(2-thienyl)ethyl))-5,6-methylenedioxy tetralin hydrochloride], for which the pKi is 8.77 and the “alpha-2 - Selectivity Ki alpha-1/Ki alpha 2” value stood at 262.

Regarding `COc1cc2c(c(OC)c1)C(CN(C)CCc1cccs1)CCC2` (stereo not shown) [Example 26, 1-((N-Methylamino)methyl-N-(2-(2-thienyl)ethyl))-6,8-dimethoxy tetralin hydrochloride], the pKi was 9.22 and the “alpha-2 - Selectivity Ki alpha-1/Ki alpha 2” value is recorded as 292.

As for `COc1ccc2c(c1)C(CN(C)CCc1cccs1)CCC2` (stereo not shown) [Example 27, 1-((N-Methylamino)methyl-N-(2-(2-thienyl)ethyl))-7-methoxy tetralin hydrochloride], the pKi is 8.70 and the “alpha-2 - Selectivity Ki alpha-1/Ki alpha 2” value is 263.

Turning to `COc1ccc(C)c2c1CCCC2CN(C)CCc1cccs1` (stereo not shown) [Example 36, 1-(N-Methylamino)methyl-N-(2-(2-thienyl)ethyl))-5-methoxy-8-methyl tetralin hydrochloride], the pKi is 8.16 and the “alpha-2 - Selectivity Ki alpha-1/Ki alpha 2” value is 95.

Turning to `COc1ccc2c(c1)CCC2CN(C)CCc1cccs1` (stereo not shown) [Example 37, 1-((N-Methylamino)methyl-N-(2-(2-thienyl)ethyl))-5-methoxy indane hydrochloride], the pKi is 8.43 and the “alpha-2 - Selectivity Ki alpha-1/Ki alpha 2” value turned out to be 174.

Take `CCN(CCc1cccc(F)c1)CC1CCCc2cc(OC)ccc21` (stereo not shown) [Example 42, 1-((N-Ethylamino)methyl-N-(2-(m-fluorophenyl)ethyl))-6-methoxy tetralin hydrochloride]: the pKi was 8.18 and the “alpha-2 - Selectivity Ki alpha-1/Ki alpha 2” value was determined as 159.

On to `CCN(CCc1ccco1)CC1CCCc2cc(OC)ccc21` (stereo not shown) [Example 43, 1-((N-Ethylamino)methyl-N-(2-(2-furyl)ethyl))-6-methoxy tetralin hydrochloride], for which the pKi is 8.22 and the “alpha-2 - Selectivity Ki alpha-1/Ki alpha 2” value came out at 233.

As to `CCCN(CCc1cccs1)CC1CCCc2cc(OC)ccc21` (stereo not shown) [Example 58, 1-((N propylamino)methyl)-N-(2-(2-thienyl)ethyl))-6-methoxy tetralin hydrochloride], the pKi was 7.74 and the “alpha-2 - Selectivity Ki alpha-1/Ki alpha 2” value is reported as 102.

Take `COc1ccc2c(c1)CCCC2CN(C)CCc1cccc(N)c1` (stereo not shown) [Example 67, 1 ((N-Methylamino)methyl-N-(2-(maminophenyl)ethyl))-6-methoxy tetralin dihydrochloride]: the pKi was 8.22 and the “alpha-2 - Selectivity Ki alpha-1/Ki alpha 2” value worked out at 195.

Consider `CN(CCc1cccc(N)c1)CC1CCCc2cc(O)ccc21` (stereo not shown) [Example 68, 1-((N-Methylamino)methyl N-(2-(m-aminophenyl)ethyl))-6-hydroxy tetralin dihydrobromide], for which the pKi was 8.22 and the “alpha-2 - Selectivity Ki alpha-1/Ki alpha 2” value amounted to 196.

Take `CCOc1ccc2c(c1)CCCC2CN(C)CCc1cccc(N)c1` (stereo not shown) [Example 69, 1-((N-Methylamino)methyl-N-(2-(m-aminophenyl)ethyl))-6-ethoxy tetralin dihydrochloride]: the pKi was 7.89 and the “alpha-2 - Selectivity Ki alpha-1/Ki alpha 2” value is on record as 98.

As to `CN(CCc1cccc(F)c1)CC1CCCc2ccccc21` (stereo not shown) [Example 70, 1-((N-Methylamino)methyl-N-(2-(m-fluorophenyl)ethyl))-tetralin hydrochloride], the pKi was 8.30 and the “alpha-2 - Selectivity Ki alpha-1/Ki alpha 2” value turned out to be 105.

Take `CN(CCc1cccc(O)c1)CC1CCCc2cc(O)ccc21` (stereo not shown) [Example 82, 1-((N-Methylamino)methyl-N-(2-(m-hydroxyphenyl)ethyl))-6-hydroxy tetralin hydrochloride]: the pKi was 8.40 and the “alpha-2 - Selectivity Ki alpha-1/Ki alpha 2” value is 124.

As for `COc1ccc2c(c1)CCCC2CN(C)CCc1cccc(O)c1` (stereo not shown) [Example 83, 1-((N-Methylamino)methyl-N-(2-(m-hydroxyphenyl)ethyl))-6-methoxy tetralin hydrochloride], the pKi is 8.10 and the “alpha-2 - Selectivity Ki alpha-1/Ki alpha 2” value is reported as 119.

As to `CN(CCc1cccc(F)c1)CC1CCCc2c1ccc(O)c2O` (stereo not shown) [Example 85, 1-((N-Methylamino)methyl-N-(2-(m-fluorophenyl)ethyl))-5,6-dihydroxy tetralin hydrochloride], the pKi is 8.82 and the “alpha-2 - Selectivity Ki alpha-1/Ki alpha 2” value was determined as 173.

Take `COc1ccc2c(c1OC)CCCC2CN(C)CCc1cccs1` (stereo not shown) [Example 86, 1-((N-Methylamino)methyl-N-(2-(2-thienyl)ethyl))-5,6-dimethoxy tetralin hydrochloride]: the pKi was 8.52 and the “alpha-2 - Selectivity Ki alpha-1/Ki alpha 2” value is listed as 165.

`CN(CCc1cccs1)CC1CCCc2c1ccc(O)c2O` (stereo not shown) [Example 87, 1-((N-Methylamino)methyl-N-(2-(2-thienyl)ethyl))-5,6-dihydroxy tetralin hydrochloride]: the negative logarithm of the Ki (pKi) is 8.80 and the “alpha-2 - Selectivity Ki alpha-1/Ki alpha 2” value was 278.

As for `CN(CCc1ccccc1)CC1CCCc2ccccc21` (stereo not shown) [Example 88, 1-(N-Methylamino)methyl-N-(2-phenethyl)) tetralin hydrochloride], the pKi is 8.70 and the “alpha-2 - Selectivity Ki alpha-1/Ki alpha 2” value is 158.

Take `CN(CCc1ccccc1)CC1CCCc2cc(N)ccc21` (stereo not shown) [Example 114, 1-((N-Methylaminomethyl-N-(2-phenylethyl))-6-aminotetralindihydrochloride]: the pKi is 8.24 and the “alpha-2 - Selectivity Ki alpha-1/Ki alpha 2” value is 127.

For `CN(CCc1cccs1)CC1CCCc2c1ccc(O)c2I` (stereo not shown) [Example 115, 1-((N-Methylamino)methyl-N-(2-(2-thienyl)ethyl))-5-iodo-6-hydroxy tetralin hydrochloride], the pKi is 8.52 and the “alpha-2 - Selectivity Ki alpha-1/Ki alpha 2” value was determined as 177.

Consider `COc1ccc2c(c1)CCCC2CN1CCC(c2ccccc2)C1` (stereo not shown) [Example 121, 6-Methoxy-1-(3-phenylpyrrolidino-1-methyl) tetralin hydrochloride], for which the pKi is 9.00 and the “alpha-2 - Selectivity Ki alpha-1/Ki alpha 2” value stood at 95.

On to `COc1cc2c(cc1C)C(CN(C)CCc1ccco1)CCC2` (stereo not shown) [Example 128, 1-((N-Methylamino)methyl-N-(2-(2-furyl)ethyl))-6-methoxy 7-methyl tetralin hydrochloride], for which the pKi was 8.10 and the “alpha-2 - Selectivity Ki alpha-1/Ki alpha 2” value is recorded as 107.

In the case of `CN(CCc1cccs1)CC1CCCc2c(Cl)cccc21` (stereo not shown) [Example 129, 1-((N-Methylamino)methyl-N-(2-(2-thieny)ethyl))-5-chloro tetralin hydrochloride], the pKi was 8.44 and the “alpha-2 - Selectivity Ki alpha-1/Ki alpha 2” value was determined as 55.

Consider `COc1cc2c(cc1F)C(CN(C)CCc1ccco1)CCC2` (stereo not shown) [Example 141, 1-((N-methylamino)methyl-N-(2-(2-furyl)ethyl))-6-methoxy-7-fluoro tetralin methanesulfonate], for which the pKi was 8.32 and the “alpha-2 - Selectivity Ki alpha-1/Ki alpha 2” value was 183.

Regarding `c1csc(C2CCN(CC3CCCc4c3ccc3c4OCO3)C2)c1` (stereo not shown) [Example 144, 5,6-Methylenedioxy-1-(3-(2-thienyl)pyrrolidino-1-methyl) tetralin methanesulfonate], the pKi is 8.92 and the “alpha-2 - Selectivity Ki alpha-1/Ki alpha 2” value is reported as 204.

With `COc1cccc2c1CCCC2CN1CCC(c2cccs2)C1` (stereo not shown) [Example 146, 5-Methoxy1-(3-(2-thienyl)pyrrolidino-1-methyl) tetralin hydrochloride], the pKi is 8.31 and the “alpha-2 - Selectivity Ki alpha-1/Ki alpha 2” value amounted to 35.

As for `Fc1ccc2c(c1)CCCC2CN1CCC(c2ccccc2)C1` (stereo not shown) [Example 148, 6-Fluoro-1-(3-phenylpyrrolidino-1-methyl) tetralin methanesulfonate], the pKi is 8.19 and the “alpha-2 - Selectivity Ki alpha-1/Ki alpha 2” value is on record as 19.

Take `COc1ccc2c(c1)CCC2CN1CCC(c2cccs2)C1` (stereo not shown) [Example 151, 5-Methoxy1-(3-(2-thienyl)pyrrolidino-1-methyl) indane hydrochloride]: the pKi was 8.60 and the “alpha-2 - Selectivity Ki alpha-1/Ki alpha 2” value worked out at 71.

As for `COc1ccc2c(c1)CCC2CN1CCC(c2cccc(F)c2)C1` (stereo not shown) [Example 153, 5-Methoxy-1-(3-(m-fluorophenyl)pyrrolidino-1-methyl) indane hydrochloride], the pKi was 8.07 and the “alpha-2 - Selectivity Ki alpha-1/Ki alpha 2” value amounted to 7.
